Source: patent publication US20200276181A1, “THIENOISOQUINOLINES AND THEIR DERIVATIVES FOR TARGETING TUBULIN, CH-TOG, AURORA A KINASE, TPX2, CDK5RAP2 AND/OR ASPM” (VALORBEC, SEC, priority 2017, published 2020)

Experiments:
[1] = test system: HCT116 cells with lower levels of endogenous MCAK (MCAK RNAi); test: Spindle phenotypes with MCAK RNAi; format: cell-based; conditions: 300 nM C75
Method: FIG. 9A) is a series of images of HCT116 cells with lower levels of endogenous MCAK (MCAK RNAi), stained for DAPI (DNA) and tubulin (microtubules), and treated with 300 nM C75 or control. FIG. 9B) is a bar graph showing the proportion of spindle phenotypes in HCT116 cells treated as in 9A). The multipolar spindle phenotypes caused by C75 are suppressed by MCAK RNAi.
It was observed that the proportion of multipolar spindles caused by C75 are decreased after MCAK depletion.

[2] = test system: A549 cells; test: Viability IC50 of C75 in combination with subthreshold colchicine; format: cell-based, human; conditions: + 9 nM colchicine
[3] = test system: HeLa cells with lower levels of endogenous MCAK (MCAK RNAi); test: Spindle phenotypes with MCAK RNAi; format: cell-based, human; conditions: 300 nM C75 or 30 nM colchicine
Excerpt: FIG. 8B) is a bar graph showing the proportion of spindle phenotypes in HeLa cells treated as in 8A).
Since this is unique to C75, and ch-TOG RNAi was previously shown to be suppressed (partially) by MCAK RNAi, supporting C75's role in targeting ch-TOG or a component of the pathway.

[4] = test system: H1299 (non-small cell lung cancer) cells; test: Mitotic arrest after one population doubling time; format: cell-based, human; conditions: H1299, least responsive
Excerpt: (§1) For each condition, 20,000 cells were counted per replicate (N=3). Line graphs (right) were made to better illustrate the relative changes in the cell cycle phases for the different treatments. Bars show standard deviation. The asterisks indicate the first statistically significant change in the G0/G1 and G2/M populations determined by a two-way ANOVA with a post-hoc Tukey's multiple comparisons test using 95% confidence intervals. FIG. 2B) is a line graph showing the percentage of HCT116 (p53−/−) cells, A549 cells, HeLa cells and H1299 cells in mitosis after treatment with various concentrations of C75 for one population doubling time. All of the cell lines show an increase in the proportion of mitotic cells after treatment with 200 nM C75. The bars indicate standard deviation. […]
(§2) C75 was also tested for efficacy in different cancer cell lines. […] To further assess the role of C75 in disrupting spindles, HeLa cells were treated with 300 nM C75 for 4 hours and the spindle phenotypes were analyzed in more detail (FIG. 2E). […] To assess the affect of C75 on centrosomes, HeLa cells were treated with C75 or nocodazole (a drug that causes microtubule depolymerization as a control) for a short period of time (5 minutes), then the drugs were removed and the cells were analyzed for spindle phenotypes (schematic in FIG. 2G). […]

[5] = test system: HCT116, HeLa and A549 cells; test: Cell cycle phases by flow cytometry; format: cell-based; conditions: 300 nM or 400 nM for 8 hours
Excerpt: as §1, §2

[6] = test system: HeLa, A549 and HCT116 cancer cells compared to HFF-1 non-cancer cells; test: Selective toxicity, high-throughput automated analysis; format: cell-based; conditions: A549, HCT116 vs HFF-1
Method: FIG. 1A) is a line graph showing changes in the percentage of viable HFF-1, HeLa, A549 and HCT 116 cells after treatment with a range of C75 concentrations for 3 population doubling times (N=3). […] There were more rounded mitotic cells after C75 treatment in comparison to the control. FIG. 1C) is a line graph showing the percentage of HeLa and HFF1 cells in mitosis after treatment with various concentrations of C75 for 8 hours. The bars indicate standard deviation. FIG. 1D) is a series of images showing cells that were fixed and co-stained for tubulin (microtubules) and DAPI (DNA). Treatment of HeLa cells with 300 nM C75 caused the mitotic spindles to be disorganized, while they were not affected in HFF1 cells. […] The scale bar for the cells is 10 μm. […] FIG. 1F) is a cartoon schematic showing the key features of a metaphase cell.
The images in FIG. 1B) show fields of view of HeLa cells treated with (dimethyl sulfoxide) DMSO or 500 nM of C75. […] Higher concentrations of C75 caused spindle phenotypes in HFF1 cells, but they were quite different in comparison to HeLa cells (FIG. 1D).

Structure (SMILES): COc1ccc(S(=O)(=O)N2Cc3ccccc3-c3sc(Br)cc32)cc1 [Compound C75]
- suppression of multipolar spindle phenotypes by MCAK RNAi [1]: suppressed
- lowering of the IC50 of C75 by subthreshold colchicine [2]: ~2 fold
- suppression of fragmented spindle phenotype by MCAK RNAi [3]: partially suppressed
- concentration at which mitotic cells show a small increase [4]: 200 nM
- change in proportion of G2/M cells [5]: increase in the proportion of G2/M cells
- toxicity in cancer cells compared to HFF-1 non-cancer cells [6]: selectively cause toxicity
